Test system: SARS-CoV-2
Experiment: SARS-CoV-2 antiviral assay (dose-response, automated confocal imaging of infected cells)
Type: cell-based, severe acute respiratory syndrome coronavirus-2
Conditions: SARS-CoV-2, Vero81-derived F1G-red cells, MOI 0.2, 16 h, compounds at 1.56-25 µM
Method: Dose-response experiments were conducted to determine half-maximal inhibitory concentration, IC50 of the compounds on severe acute respiratory syndrome coronavirus-2 (SARS-CoV-2). Vero81-derived F1G-red cells seeded in 384-well plate were inoculated with SARS-CoV-2 at a multiplicity of infection (MOI) of 0.2, at 37°C, in the presence of each compound at 1.56, 3.13, 6.25, 12.5 and 25 µM. Images were acquired 16 h later using an InCell-6500 automated confocal microscope (Cytiva, Marlborough, United States). Infected cells and total cell numbers were quantified as previously described. Percentage of infection relative to the DMSO controls were obtained and IC50 were calculated using Prism 10 software (Graph Pad Inc., La Jolla, CA, USA). […] Table 2. IC50 of pure and synthetic compounds on SARS-CoV-2

| Compound | IC50 [µM] |
| --- | --- |
| CC(C)=CCC1=C(O)C(C(=O)C(C)C)=C(O)C(CC=C(C)C)(CC=C(C)C)C1=O [Colupulone, Co-lupulone] | < 7 |
| CC(C)=CCC1=C(O)C(CC=C(C)C)(CC=C(C)C)C(=O)C(C(=O)C(C)C)=C1O [LB.70-F2, 3,5-dihydroxy-4,6,6-tris(3-methylbut-2-en-1-yl)-2-(2-methylpropanoyl)cyclo-hexa-2,4-dien-1-one] | < 7 |

Same assay, conditions: Severe acute respiratory syndrome coronavirus 2, 16 h, SARS-CoV-2, Vero81-derived F1G-red cells, MOI 0.2, 16 h, compounds at 1.56-25 µM

| Compound | IC50 [µM] |
| --- | --- |
| CCC(C)C(=O)C1=C(O)C(CC=C(C)C)=C(O)C(CC=C(C)C)(CC=C(C)C)C1=O (centres unmarked) [AH8-F2, 3,5-dihydroxy-4,6,6-tris(3-methylbut-2-en-1-yl)-2-(2-methylbutanoyl)cyclohexa-2,4-dien-1-one] | < 25 |
| CCCC(=O)C1=C(O)C(CC=C(C)C)=C(O)C(CC=C(C)C)(CC=C(C)C)C1=O [AH10-F2, 2-butyryl-3,5-dihydroxy-4,6,6-tris(3-methylbut-2-en-1-yl)cyclohexa-2,4-dien-1-one] | < 14 |
| CC(C)=CCC1=C(O)C(CC=C(C)C)(CC=C(C)C)C(=O)C(C(=O)C(C)C)=C1O [AH15-F1, 3,5-dihydroxy-2-isobutyryl-4,6,6-tris(3-methylbut-2-en-1-yl)cyclohexa-2,4-dien-1-one] | < 14 |
| CC(=O)C1=C(O)C(CC=C(C)C)=C(O)C(CC=C(C)C)(CC=C(C)C)C1=O [AH16-F2, 2-acetyl-3,5-dihydroxy-4,6,6-tris(3-methylbut-2-en-1-yl)cyclohexa-2,4-dien-1-one] | > 25 |
| CCC(=O)C1=C(O)C(CC=C(C)C)=C(O)C(CC=C(C)C)(CC=C(C)C)C1=O [AH17-F2, 3,5-dihydroxy-4,6,6-tris(3-methylbut-2-en-1-yl)-2-propionylcyclohexa-2,4-dien-1-one] | > 25 |
| CCCCC(=O)C1=C(O)C(CC=C(C)C)=C(O)C(CC=C(C)C)(CC=C(C)C)C1=O [AH18-F4, 3,5-dihydroxy-4,6,6-tris(3-methylbut-2-en-1-yl)-2-pentanoylcyclohexa-2,4-dien-1-one] | < 14 |
| CC(C)=CCC1=C(O)C(CC=C(C)C)(CC=C(C)C)C(=O)C(C(=O)CCC(C)C)=C1O [AH39-F1, 3,5-dihydroxy-4,6,6-tris(3-methylbut-2-en-1-yl)-2-(4-methylpentanoyl)cyclohexa-2,4-dien-1-one] | < 25 |
| CCC(C)CC(=O)C1=C(O)C(CC=C(C)C)=C(O)C(CC=C(C)C)(CC=C(C)C)C1=O (centres unmarked) [AH40-F1, 3,5-dihydroxy-4,6,6-tris(3-methylbut-2-en-1-yl)-2-(3-methylpentanoyl)cyclohexa-2,4-dien-1-one] | > 25 |
| CC(C)=CCC1=C(O)C(CC=C(C)C)(CC=C(C)C)C(=O)C(C(=O)C=Cc2ccccc2)=C1O [AH41-F1, 2-cinnamoyl-3,5-dihydroxy-4,6,6-tris(3-methylbut-2-en-1-yl)cyclohexa-2,4-dien-1-one] | < 25 |
| CC(C)=CCc1c(O)cc(O)c(C(=O)C(C)C)c1O [AH62-F2, 2-methyl-1-(2,4,6-trihydroxy-3-(3-methylbut-2-en-1-yl)phenyl)propan-1-one] | < 7 |
| CC(C)=CCC1(CC=C(C)C)C(=O)C(C(=O)C(C)C)=C(O)C(C(=O)C(C)C)=C1O [AH66-F1, 1,1'-(2,4-dihydroxy-5,5-bis(3-methylbut-2-en-1-yl)-6-oxocyclohexa-1,3-diene-1,3-diyl)bis(2-methylpropan-1-one)] | < 25 |
| CC(C)=CCC1=C(O)C(C(=O)CC(C)C)=C(O)C(CC=C(C)C)(CC=C(C)C)C1=O [Lupulone] | < 7 |
